Results on eleven compounds are retold here after patent US12527794B2, “Compositions, formulations, and methods for hair treatment” (Oddity Labs, LLC, priority 2021, dated 2026).

The experiment deals with human hair follicle dermal papilla cells (hFDPC). The experiment is described as follows: Human follicle dermal papilla cell (hFDPC) proliferation, cell viability assay. To be noted: hFDPCs supplemented with BIO, BMP-2 and FGFβ. The format is cell-based. Here is the method:
The ability of a compound or salt of the present disclosure to increase proliferation of human hair follicle dermal papilla cells (hFDPC) was tested using a cell viability assay, such as the Promega CellTiter-Glo® Luminescent Cell Viability Assay, MTT cell proliferation assay (ATCC® 30-1010K) or cell counting. […] In Table 8, A represents less than 20% of increased proliferation of hFDPCs, B represents 20-40%, and C represents larger than 40% of increased proliferation of hFDPCs. For this assay, hFDPCs were cultured on tissue culture-treated plastic and supplemented with 6-bromoindirubin-39-Oxime (BIO), recombinant bone morphogenetic protein-2 (BMP-2), and basic fibroblast growth factor (FGFβ), whose combination was previously found to preserve in situ dermal papilla gene signatures.

The structures appear in SMILES notation.

Regarding `C=CCc1cc(/C=C2\C(=O)NC(=O)N(c3ccc(C(C)C)cc3)C2=O)cc(OC)c1O` [Compound I-1, 2,4,6(1H,3H,5H)-Pyrimidinetrione, 5-[[4-hydroxy-3-methoxy-5-(2-propen-1-yl)phenyl]methylene]-1-[4-(1-methylethyl)phenyl]-], the “Percent Increase Proliferation of hFDPCs (%)” value is listed as “A (A represents less than 20% of increased proliferation of hFDPCs)”.

On to `C=CCc1cc(/C=C2\C(=O)NC(=O)N(c3cc(C)cc(C)c3)C2=O)cc(OCC)c1O` [Compound I-2, 2,4,6(1H,3H,5H)-Pyrimidinetrione, 1-(3,5-dimethylphenyl)-5-[[3-ethoxy-4-hydroxy-5-(2-propen-1-yl)phenyl]methylene]-], for which the “Percent Increase Proliferation of hFDPCs (%)” value is listed as “B (B represents 20-40%)”.

In the case of `C=CCc1cc(/C=C2\C(=O)NC(=O)N(c3cc(C)cc(C)c3)C2=O)cc(OC)c1O` [Compound I-3, 2,4,6(1H,3H,5H)-Pyrimidinetrione, 1-(3,5-dimethylphenyl)-5-[[4-hydroxy-3-methoxy-5-(2-propen-1-yl)phenyl]methylene]-], the “Percent Increase Proliferation of hFDPCs (%)” value is on record as “A (A represents less than 20% of increased proliferation of hFDPCs)”.

Regarding `C=CCc1cc(/C=C2\C(=O)NC(=O)N(c3ccc(C)c(C)c3)C2=O)cc(OC)c1O` [Compound I-4, 2,4,6(1H,3H,5H)-Pyrimidinetrione, 1-(3,4-dimethylphenyl)-5-[[4-hydroxy-3-methoxy-5-(2-propen-1-yl)phenyl]methylene]], the “Percent Increase Proliferation of hFDPCs (%)” value was “A (A represents less than 20% of increased proliferation of hFDPCs)”.

On to `COc1cc(/C=C2\C(=O)NC(=O)N(Cc3ccccc3)C2=O)cc(OC)c1O` [Compound I-5, 2,4,6(1H,3H,5H)-Pyrimidinetrione, 5-[(4-hydroxy-3,5-dimethoxyphenyl)methylene]-1-(phenylmethyl)-], for which the “Percent Increase Proliferation of hFDPCs (%)” value is listed as “B (B represents 20-40%)”.

For `C=CCN1C(=O)NC(=O)/C(=C\c2ccc(OC)cc2OC)C1=O` [Compound I-6, 2,4,6(1H,3H,5H)-Pyrimidinetrione, 5-[(2,4-dimethoxyphenyl)methylene]-1-(2-propen-1-yl)-], the “Percent Increase Proliferation of hFDPCs (%)” value is “A (A represents less than 20% of increased proliferation of hFDPCs)”.

For the compound `C=CCOc1ccc(/C=C2/C(=O)NC(=O)N(CC=C)C2=O)cc1OC` [Compound I-7, 2,4,6(1H,3H,5H)-Pyrimidinetrione, 5-[[3-methoxy-4-(2-propen-1-yloxy)phenyl]methylene]-1-(2-propen-1-yl)-], the “Percent Increase Proliferation of hFDPCs (%)” value is recorded as “A (A represents less than 20% of increased proliferation of hFDPCs)”.

On to `C=CCc1cc(C=C2C(=O)NC(=S)NC2=O)cc(OCC)c1O` [Compound I-8, 4,6(1H,5H)-Pyrimidinedione, 5-[[3-ethoxy-4-hydroxy-5-(2-propen-1-yl)phenyl]methylene]dihydro-2-thioxo-], for which the “Percent Increase Proliferation of hFDPCs (%)” value is on record as “B (B represents 20-40%)”.

Regarding `C=CCc1cc(C=C2C(=O)NC(=S)NC2=O)cc(OC)c1O` [Compound I-9, 4,6(1H,5H)-Pyrimidinedione, dihydro-5-[[4-hydroxy-3-methoxy-5-(2-propen-1-yl)phenyl]methylene]-2-thioxo-], the “Percent Increase Proliferation of hFDPCs (%)” value is given as “B (B represents 20-40%)”.

Consider `C=CCc1cc(/C=C2\C(=O)NC(=S)N(C)C2=O)cc(OC)c1OCC` [Compound I-10, 4,6(1H,5H)-Pyrimidinedione, 5-[[4-ethoxy-3-methoxy-5-(2-propen-1-yl)phenyl]methylene]dihydro-1-methyl-2-thioxo-], for which the “Percent Increase Proliferation of hFDPCs (%)” value was “A (A represents less than 20% of increased proliferation of hFDPCs)”.

Regarding `COc1ccc(/C=C2\C(=O)NC(=O)N(C)C2=O)c(OC)c1` [Compound I-11, 2,4,6(1H,3H,5H)-Pyrimidinetrione, 5-[(2,4-dimethoxyphenyl)methylene]-1-methyl-, (5E)-], the “Percent Increase Proliferation of hFDPCs (%)” value is “A (A represents less than 20% of increased proliferation of hFDPCs)”.
